{"source": "ChEMBL document CHEMBL6182893", "about": "“Discovery of non-electrophilic TRPA1 channel agonists with anti-nociceptive effects via rapid current desensitization” (Eur J Med Chem, 2025)", "key": {"[1]": {"assay": "Selectivity ratio of EC50 for agonist activity at mouse TRPA1 expressed in HEK293T cells to EC50 for agonist activity at human TRPA1 expressed in HEK293T cells", "format": "cell-based"}, "[2]": {"molecular_target": "T1, Transient receptor potential cation channel subfamily A member 1 (Homo sapiens, UniProt O75762)", "T1 sequence (O75762 whole entry)": "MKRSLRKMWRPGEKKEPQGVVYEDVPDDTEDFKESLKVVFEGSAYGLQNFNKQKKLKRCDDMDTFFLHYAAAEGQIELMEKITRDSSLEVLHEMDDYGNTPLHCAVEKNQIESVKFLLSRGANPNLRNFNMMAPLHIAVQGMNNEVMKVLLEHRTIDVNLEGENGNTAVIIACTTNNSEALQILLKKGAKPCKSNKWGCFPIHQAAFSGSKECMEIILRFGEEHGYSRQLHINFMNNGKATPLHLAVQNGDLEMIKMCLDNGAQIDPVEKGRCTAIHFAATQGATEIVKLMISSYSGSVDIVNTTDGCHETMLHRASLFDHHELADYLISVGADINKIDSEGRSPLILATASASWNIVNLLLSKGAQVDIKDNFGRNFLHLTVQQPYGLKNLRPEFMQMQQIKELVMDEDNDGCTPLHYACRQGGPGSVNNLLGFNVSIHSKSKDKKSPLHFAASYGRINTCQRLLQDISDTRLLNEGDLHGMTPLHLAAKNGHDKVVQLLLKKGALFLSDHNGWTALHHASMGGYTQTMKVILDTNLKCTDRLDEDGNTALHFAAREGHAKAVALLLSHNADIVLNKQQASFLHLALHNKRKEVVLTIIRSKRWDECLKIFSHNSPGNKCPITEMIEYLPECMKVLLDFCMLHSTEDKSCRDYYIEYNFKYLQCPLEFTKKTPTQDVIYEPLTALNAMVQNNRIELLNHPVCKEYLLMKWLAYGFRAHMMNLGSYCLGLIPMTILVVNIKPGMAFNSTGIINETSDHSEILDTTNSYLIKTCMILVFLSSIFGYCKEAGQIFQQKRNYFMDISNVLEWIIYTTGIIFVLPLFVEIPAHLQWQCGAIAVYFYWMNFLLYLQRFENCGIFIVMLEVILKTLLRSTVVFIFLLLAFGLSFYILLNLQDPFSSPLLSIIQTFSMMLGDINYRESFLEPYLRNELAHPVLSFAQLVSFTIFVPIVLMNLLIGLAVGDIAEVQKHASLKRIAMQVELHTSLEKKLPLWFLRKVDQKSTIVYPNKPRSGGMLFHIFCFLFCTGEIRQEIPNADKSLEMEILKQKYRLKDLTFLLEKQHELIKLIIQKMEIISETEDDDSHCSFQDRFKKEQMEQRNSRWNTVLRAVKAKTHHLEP", "assay": "Agonist activity at human TRPA1 expressed in HEK293T cells by whole cell patch clamp recordings", "format": "cell-based"}, "[3]": {"assay": "Toxicity in wildtype C57BL/6J mouse assessed as irritation at 0.3 %, SC administered via hind paw and measured within 45 mins", "settings": "in vivo, 0.75 h"}, "[4]": {"molecular_target": "Transient receptor potential cation channel subfamily A member 1 (Mus musculus, UniProt Q8BLA8)", "sequence (Q8BLA8 whole entry)": "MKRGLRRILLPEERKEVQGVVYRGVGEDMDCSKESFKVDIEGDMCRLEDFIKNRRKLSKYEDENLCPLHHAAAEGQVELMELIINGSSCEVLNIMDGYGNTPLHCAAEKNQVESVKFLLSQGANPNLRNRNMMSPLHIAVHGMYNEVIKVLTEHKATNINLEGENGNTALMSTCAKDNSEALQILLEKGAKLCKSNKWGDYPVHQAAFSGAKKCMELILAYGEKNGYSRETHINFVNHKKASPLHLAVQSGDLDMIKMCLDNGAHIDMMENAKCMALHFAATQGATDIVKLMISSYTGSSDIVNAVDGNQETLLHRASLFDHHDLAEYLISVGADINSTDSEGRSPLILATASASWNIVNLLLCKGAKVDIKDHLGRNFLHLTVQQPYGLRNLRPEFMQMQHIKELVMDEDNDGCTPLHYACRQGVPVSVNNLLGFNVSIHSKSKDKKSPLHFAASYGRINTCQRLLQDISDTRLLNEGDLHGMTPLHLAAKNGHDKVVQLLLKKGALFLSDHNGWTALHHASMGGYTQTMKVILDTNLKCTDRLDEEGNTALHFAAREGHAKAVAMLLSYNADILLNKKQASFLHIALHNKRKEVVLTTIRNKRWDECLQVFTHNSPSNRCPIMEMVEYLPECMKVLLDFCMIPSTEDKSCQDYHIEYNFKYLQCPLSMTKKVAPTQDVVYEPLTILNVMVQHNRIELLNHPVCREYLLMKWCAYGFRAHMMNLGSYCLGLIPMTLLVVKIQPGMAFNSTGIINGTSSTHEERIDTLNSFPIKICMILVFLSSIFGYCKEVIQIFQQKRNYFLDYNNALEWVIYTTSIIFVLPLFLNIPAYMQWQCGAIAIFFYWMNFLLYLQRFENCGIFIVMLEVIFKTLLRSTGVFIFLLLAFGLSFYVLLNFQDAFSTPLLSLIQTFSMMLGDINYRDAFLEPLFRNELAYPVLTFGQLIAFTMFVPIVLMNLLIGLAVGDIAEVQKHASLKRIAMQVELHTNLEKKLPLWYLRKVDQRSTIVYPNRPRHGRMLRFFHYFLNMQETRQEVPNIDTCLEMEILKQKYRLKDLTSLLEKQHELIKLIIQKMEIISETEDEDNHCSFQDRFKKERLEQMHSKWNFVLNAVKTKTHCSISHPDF", "assay": "Agonist activity at mouse TRPA1 expressed in HEK293T cells by whole cell patch clamp recordings", "format": "cell-based"}, "Mus musculus [5]": {"tested_on": "Mus musculus", "assay": "Antinociceptive activity in TRPA1 knock-out mouse model of thermal pain assessed as increase in paw lick latency at 20 mg/kg, po preadministered for 30 mins followed by exposure to 55 degreeC and measured up to 4 hrs by hot plate test", "format": "functional, organism-based"}, "[6]": {"assay": "Toxicity in wildtype C57BL/6J mouse assessed as irritation at 1 %, SC administered via hind paw and measured within 45 mins", "settings": "in vivo, 0.75 h"}, "[7]": {"molecular_target": "T1, Transient receptor potential cation channel subfamily A member 1", "assay": "Irreversible binding affinity to TRPA1 (unknown origin)", "settings": "filed as agonist"}, "[8]": {"molecular_target": "T1, Transient receptor potential cation channel subfamily A member 1", "assay": "Agonist activity at human TRPA1 expressed in HEK293T cells assessed as increase in channel opening by measuring open probability at 30 uM in presence of A-967079 by single-channel recordings", "format": "cell-based", "settings": "filed as agonist"}, "[9]": {"molecular_target": "T1, Transient receptor potential cation channel subfamily A member 1", "assay": "Agonist activity at human TRPA1 expressed in HEK293T cells assessed as increase in channel opening by measuring single channel conductance at 30 uM in presence of A-967079 by single-channel recordings", "format": "cell-based", "settings": "filed as agonist"}, "Mus musculus [10]": {"tested_on": "Mus musculus", "assay": "Antinociceptive activity in CFA-induced male C57BL/6J mouse model of inflammatory pain assessed as paw withdrawal mechanical threshold at 20 mg/kg, po challenged with CFA for 24 hrs followed by compound administration for 30 mins and measured after 4 hrs (reference value: 0.47 +/- 0.10 g)", "format": "functional"}, "Mus musculus [11]": {"tested_on": "Mus musculus", "assay": "Antinociceptive activity in CFA-induced male C57BL/6J mouse model of inflammatory pain assessed as paw withdrawal mechanical threshold at 20 mg/kg, po challenged with CFA for 24 hrs followed by compound administration for 30 mins and measured after 1 hrs (reference value: 0.22 +/- 0.03 g)", "format": "functional", "settings": "time 1.5 hrs"}, "Mus musculus [12]": {"tested_on": "Mus musculus", "assay": "Antinociceptive activity in acetic-acid induced wildtype male C57BL/6J mouse model of visceral pain assessed as reduction in abdominal writhing at 20 mg/kg, po preadministered for 30 mins followed by acetic acid challenge and measured after 15 mins", "format": "functional, organism-based"}, "Mus musculus [13]": {"tested_on": "Mus musculus", "assay": "Antinociceptive activity in acetic-acid induced TRPA1 knock-out mouse model of visceral pain assessed as reduction in abdominal writhing at 20 mg/kg, po preadministered for 30 mins followed by acetic acid challenge and measured after 15 mins", "format": "functional, organism-based"}, "Mus musculus [14]": {"tested_on": "Mus musculus", "assay": "Antinociceptive activity in wildtype female C57BL/6J mouse model of thermal pain assessed as paw withdrawal latency time at 20 mg/kg, po preadministered for 30 mins followed by exposure to 55 degreeC and measured after 60 mins by hot plate test (reference value: 13.65 +/- 0.69 sec)", "format": "functional", "settings": "time 90 min, 1.5 h"}, "Mus musculus [15]": {"tested_on": "Mus musculus", "assay": "Effect on mechanical allodynia in male C57BL/6J mouse assessed as paw withdrawal mechanical threshold at 20 mg/kg, po administered for 30 mins (reference value: 1.77 +/- 0.21 g)", "format": "functional", "settings": "0.5 h"}, "Mus musculus [16]": {"tested_on": "Mus musculus", "assay": "Antinociceptive activity in CFA-induced male C57BL/6J mouse model of inflammatory pain assessed as paw withdrawal mechanical threshold at 20 mg/kg, po challenged with CFA for 24 hrs followed by compound administration for 30 mins and measured immediately (reference value: 0.47 +/ 0.14 g)", "format": "functional", "settings": "0.5 h"}, "Mus musculus [17]": {"tested_on": "Mus musculus", "assay": "Antinociceptive activity in wildtype female C57BL/6J mouse model of thermal pain assessed as paw withdrawal latency time at 20 mg/kg, po preadministered for 30 mins followed by exposure to 55 degreeC and measured after 30 mins by hot plate test (reference value: 11.83 +/- 1.25 sec)", "format": "functional", "settings": "time 60 min, 1 h"}, "Mus musculus [18]": {"tested_on": "Mus musculus", "assay": "Antinociceptive activity in wildtype female C57BL/6J mouse model of thermal pain assessed as paw withdrawal latency time at 20 mg/kg, po preadministered for 30 mins followed by exposure to 55 degreeC and measured immediately by hot plate test (reference value: 16.65 +/- 1.02 sec)", "format": "functional", "settings": "0.5 h"}, "Mus musculus [19]": {"tested_on": "Mus musculus", "assay": "Antinociceptive activity in wildtype female C57BL/6J mouse model of thermal pain assessed as paw withdrawal latency time at 20 mg/kg, po preadministered for 30 mins followed by exposure to 55 degreeC and measured after 4 hrs by hot plate test (reference value: 17.41 +/- 1.18 sec)", "format": "functional"}, "Mus musculus [20]": {"tested_on": "Mus musculus", "assay": "Antinociceptive activity in CFA-induced male C57BL/6J mouse model of inflammatory pain assessed as paw withdrawal mechanical threshold at 20 mg/kg, po challenged with CFA for 24 hrs followed by compound administration for 30 mins and measured after 2 hrs (reference value: 0.55 +/- 0.13 g)", "format": "functional"}, "Mus musculus [21]": {"tested_on": "Mus musculus", "assay": "Antinociceptive activity in wildtype female C57BL/6J mouse model of thermal pain assessed as paw withdrawal latency time at 20 mg/kg, po preadministered for 30 mins followed by exposure to 55 degreeC and measured after 120 mins by hot plate test (reference value: 15.65 +/- 1.22 sec)", "format": "functional", "settings": "time 150 min"}, "Mus musculus [22]": {"tested_on": "Mus musculus", "assay": "Antinociceptive activity in CFA-induced male C57BL/6J mouse model of inflammatory pain assessed as paw withdrawal mechanical threshold at 20 mg/kg, po challenged with CFA for 24 hrs followed by compound administration for 30 mins and measured after 0.5 hrs (reference value: 0.39 +/- 0.05 g)", "format": "functional", "settings": "time 1 hrs"}, "[23]": {"molecular_target": "Transient receptor potential cation channel subfamily A member 1 (Mus musculus) (UniProt Q8BLA8)", "sequence (Q8BLA8 whole entry)": "as above", "assay": "Desensitization of mouse TRPA1 expressed in HEK293T cells assessed as time constant (tau) at 200 uM in presence of Ca2+ containing solution by whole cell patch clamp recording", "format": "cell-based", "settings": "filed as agonist"}}, "note": "Active and inactive are the calls of the source.", "data": [{"smiles": "COCCCN(C(=O)CCl)c1nc(-c2ccc(OC)cc2)cs1", "values": [{"measurement": "Ratio EC50", "setting": "[1]", "result": 1000}, {"measurement": "EC50", "setting": "[2]", "result": 6.48, "unit": "nM"}, {"measurement": "Activity", "setting": "[3]", "result": "Non-toxic"}, {"measurement": "EC50", "setting": "[4]", "result": 5260, "unit": "nM"}, {"measurement": "Activity", "setting": "Mus musculus [5]", "result": "Active"}, {"measurement": "Activity", "setting": "[6]", "result": "Toxic"}]}, {"smiles": "CCCCCNc1nc(-c2ccc(O)cc2)cs1", "values": [{"measurement": "Activity", "setting": "[7]", "result": "Active"}]}, {"smiles": "C=CCN=C=S", "note": "[ALLYL ISOTHIOCYANATE]", "values": [{"measurement": "Activity", "setting": "[8]", "result": 0.15}, {"measurement": "Activity", "setting": "[9]", "result": 102, "unit": "pS"}, {"measurement": "Activity", "setting": "[6]", "result": "Toxic"}]}, {"smiles": "CC(C)Cc1ccc(C(C)C(=O)O)cc1", "note": "(stereo not given) [IBUPROFEN]", "values": [{"measurement": "Activity", "setting": "Mus musculus [10]", "result": 0.42, "unit": "g"}, {"measurement": "Activity", "setting": "Mus musculus [11]", "result": 1.32, "unit": "g"}, {"measurement": "Activity", "setting": "Mus musculus [12]", "result": "Active"}, {"measurement": "Activity", "setting": "Mus musculus [13]", "result": "Active"}, {"measurement": "Time", "setting": "Mus musculus [14]", "result": 31.26, "unit": "s"}, {"measurement": "Activity", "setting": "Mus musculus [15]", "result": 1.84, "unit": "g"}, {"measurement": "Activity", "setting": "Mus musculus [16]", "result": 0.22, "unit": "g"}, {"measurement": "Time", "setting": "Mus musculus [17]", "result": 20.73, "unit": "s"}, {"measurement": "Time", "setting": "Mus musculus [18]", "result": 15.72, "unit": "s"}, {"measurement": "Time", "setting": "Mus musculus [19]", "result": 14.03, "unit": "s"}, {"measurement": "Activity", "setting": "Mus musculus [20]", "result": 0.69, "unit": "g"}, {"measurement": "Time", "setting": "Mus musculus [21]", "result": 15.46, "unit": "s"}, {"measurement": "Activity", "setting": "Mus musculus [22]", "result": 1.2, "unit": "g"}]}, {"smiles": "COCCCNc1cc(-c2ccc(C)cc2)cs1", "values": [{"measurement": "Activity", "setting": "[7]", "result": "Active"}]}, {"smiles": "S=C=NCc1ccccc1", "values": [{"measurement": "TIME", "setting": "[23]", "result": 0.0179, "unit": "h"}]}]}
